# How the values were obtained:
# [1] = test system: NAD+ levels in the blood; assay: Blood NAD+ level in subjects during daily oral dosing (Example 1); type: in vivo, human
# [2] = after NMN supplementation; through the liver and bloodstream intact into muscle; cited from earlier work
# [3] = compared with NAM; cited from earlier work
# [4] = murine plasma or fetal-bovine-serum containing culture medium; cited from earlier work
Molecule,NAD+ level in response to intake ([1]; 300 mg daily for 14 days),NAD+ level in response to intake ([1]; 1000 mg daily for 7 days),further results
"O=C(O)c1cccnc1 [NA, nicotinic acid]",increasing NAD+ levels,–,–
"NC(=O)c1cccnc1 [NAM, nicotinamide]",–,–,NAD+ level in response to intake ([1]; 1000 mg daily for 14 days): increasing NAD+ levels
"NC(=O)c1ccc[n+]([C@@H]2O[C@H](COP(=O)([O-])O)[C@@H](O)[C@H]2O)c1 [NMN, nicotinamide mononucleotide]",–,increasing NAD+ levels,Time to metabolism to NAD+ [2]: ≤ 30 min; Retention in the body [3]: retained in the body for longer than NAM
"NC(=O)c1ccc[n+]([C@@H]2O[C@H](CO)[C@@H](O)[C@H]2O)c1 [NR, nicotinamide riboside]",increasing NAD+ level,increasing NAD+ levels,Stability [4]: can quickly degrade into NAM
Nicotinamide adenine dinucleotide [NAD+],–,increasing NAD+ level,"NAD+ level in response to intake ([1]; 1000 mg daily for 7 days, listed as NAD): increasing NAD+ levels"

# — patent US20220249535A1, “COMPOSITIONS COMPRISING NICOTINAMIDE ADENINE DINUCLEOTIDE-RELATED COMPOUNDS AND USE THEREOF” (Rejuvenation Therapeutics, priority 2019, published 2022)
